Laboratory results taken from ChEMBL document CHEMBL1130444, “Inhibitory effects of pentamidine analogues on spermine stimulated ligand binding to the NMDA receptor complex” (Bioorg Med Chem Lett, 1997).
Several values for one entry are separate records, joined by “and”; a condition that tells them apart may be missing. Identical values can stand only once.

Assays:
Glutamate NMDA receptor [1] = test: Inhibition of [3H]MK-801 binding to the NMDA receptor of rat hippocampal membranes, measured in buffer containing 20 mM TRIS acetate, pH 7; assay type: cell membranes, Membrane
[2] = target: T1, Glutamate NMDA receptor (Rattus norvegicus) (UniProt P35439+Q00959+Q00960+Q00961+Q62645+Q8VHN2+Q9R1M7); test: Hill coefficient for binding to NMDA receptor in TRIS acetate pH 7; assay type: protein-complex assay
Glutamate NMDA receptor [3] = test: Inhibition of [3H]MK-801 binding to the NMDA receptor of rat hippocampal membranes, measured in buffer containing 50 mM TRIS acetate, pH 7; assay type: cell membranes, Membrane
Glutamate NMDA receptor [4] = test: Inhibition of [3H]MK-801 binding to NMDA receptor in 50 mM TRIS acetate pH 7; assay type: protein-complex assay, Rattus norvegicus
[5] = target: T1, Glutamate NMDA receptor (Rattus norvegicus); test: Effect of spermine on the inhibition of [3H]MK-801 binding to the NMDA receptor TRIS acetate, pH 7; assay type: protein-complex assay
[6] = target: T1, Glutamate NMDA receptor (Rattus norvegicus); test: Effect of spermine on the inhibition of [3H]MK-801 binding to the NMDA receptor at 100 TRIS acetate, pH 7; assay type: protein-complex assay
[7] = target: T1, Glutamate NMDA receptor (Rattus norvegicus); test: Hill coefficient for binding to NMDA receptor; assay type: protein-complex assay
[8] = target: T1, Glutamate NMDA receptor (Rattus norvegicus); test: Effect of spermine on the inhibition of [3H]-MK-801 binding to the NMDA receptor TRIS acetate, pH 7; assay type: protein-complex assay
[9] = target: T1, Glutamate NMDA receptor (Rattus norvegicus); test: Effect of spermine on inhibition of [3H]MK-801 binding to NMDA receptor at 100 TRIS acetate, pH 7; assay type: protein-complex assay

SMILES: COc1cc(C(=N)N)ccc1OC/C=C\COc1ccc(C(=N)N)cc1OC
- IC50 (Glutamate NMDA receptor [1]): 50 µM and 62 µM
- nH [2]: 2.14 and 1
- IC50 (Glutamate NMDA receptor [3]): 95 µM
- IC50 (Glutamate NMDA receptor [4]): 73 µM
- Increase in IC50 [5]: 4.7 and 4.5
- Increase in IC50 [6]: 1.72 and 2.87
- nH [7]: 1.21 and 1.46

SMILES: C(=C/COc1ccc(C2=NCCN2)cc1)/COc1ccc(C2=NCCN2)cc1
- IC50 (Glutamate NMDA receptor [1]): 18.8 µM and 15.9 µM
- Increase in IC50 [8]: 5.48
- nH [2]: 0.99
- IC50 (Glutamate NMDA receptor [3]): 26.7 µM
- Increase in IC50 [5]: 9.9 and 12.1
- nH [7]: 1.21

SMILES: N=C(N)c1ccc(OC/C=C\COc2ccc(C(=N)N)cc2)cc1
- IC50 (Glutamate NMDA receptor [1]): 1.8 µM and 1.48 µM
- Increase in IC50 [8]: 11.9
- nH [2]: 1.13
- IC50 (Glutamate NMDA receptor [3]): 4.26 µM
- Increase in IC50 [5]: 29.1 and 38.2
- nH [7]: 1.39 and 1.38

SMILES: N=C(N)c1ccc(OC/C=C/COc2ccc(C(=N)N)cc2)cc1
- IC50 (Glutamate NMDA receptor [1]): 2.48 µM and 1.94 µM
- Increase in IC50 [8]: 9.5
- nH [2]: 0.71
- IC50 (Glutamate NMDA receptor [3]): 3.81 µM
- Increase in IC50 [5]: 21.7 and 27.8
- nH [7]: 0.98 and 0.88

SMILES: C(=C\COc1ccc(C2=NCCN2)cc1)/COc1ccc(C2=NCCN2)cc1
- IC50 (Glutamate NMDA receptor [1]): 13.1 µM and 13.8 µM
- Increase in IC50 [8]: 4.14
- nH [2]: 0.98 and 0.81
- IC50 (Glutamate NMDA receptor [3]): 38 µM and 37 µM
- Increase in IC50 [5]: 15.3 and 12.7
- nH [7]: 0.95 and 0.87
- Increase in IC50 [9]: 4.88

SMILES: N=C(N)c1ccc(OC[C@@H](O)[C@H](O)COc2ccc(C(=N)N)cc2)cc1
- IC50 (Glutamate NMDA receptor [1]): 24.8 µM and 22.6 µM
- Increase in IC50 [8]: 9.3
- nH [2]: 1.23 and 1.08
- IC50 (Glutamate NMDA receptor [3]): 66 µM
- Increase in IC50 [5]: 28.4 and 22.4
- Increase in IC50 [6]: 8.1
- nH [7]: 1.04 and 1.09

SMILES: COc1cc(C(=N)N)ccc1OC/C=C/COc1ccc(C(=N)N)cc1OC
- IC50 (Glutamate NMDA receptor [1]): 12 µM and 12.6 µM
- nH [2]: 1.28 and 1.21
- IC50 (Glutamate NMDA receptor [3]): 31 µM and 26.4 µM
- Increase in IC50 [5]: 14.3 and 12.2
- Increase in IC50 [6]: 2.87 and 4.15
- nH [7]: 1.19

SMILES: COc1cc(C2=NCCN2)ccc1OC/C=C\COc1ccc(C2=NCCN2)cc1OC
- IC50 (Glutamate NMDA receptor [1]): 26.5 µM and 23.3 µM
- Increase in IC50 [8]: 4.62 and 3.43
- nH [2]: 1.33 and 1.15
- IC50 (Glutamate NMDA receptor [3]): 32.6 µM and 49 µM
- Increase in IC50 [5]: 7.8 and 8.6
- nH [7]: 1.13 and 1.29

SMILES: N=C(N)c1ccc(OCCCCOc2ccc(C(=N)N)cc2)cc1
- IC50 (Glutamate NMDA receptor [1]): 2.64 µM and 3.01 µM
- Increase in IC50 [8]: 10.2
- nH [2]: 0.99
- IC50 (Glutamate NMDA receptor [3]): 5.18 µM
- Increase in IC50 [5]: 28.8 and 35
- nH [7]: 1.11 and 1.36

SMILES: N=C(N)c1ccc(OCCCCCOc2ccc(C(=N)N)cc2)cc1 [PENTAMIDINE]
- IC50 (Glutamate NMDA receptor [1]): 1.31 µM and 1.74 µM
- Increase in IC50 [8]: 9.5
- nH [2]: 0.93
- IC50 (Glutamate NMDA receptor [3]): 3.06 µM
- Increase in IC50 [5]: 30.7 and 21.4
- nH [7]: 1.17 and 1.15

SMILES: COc1cc(C2=NCCN2)ccc1OC/C=C/COc1ccc(C2=NCCN2)cc1OC
- IC50 (Glutamate NMDA receptor [1]): 35 µM and 33 µM
- nH [2]: 1.09 and 1.16
- IC50 (Glutamate NMDA receptor [3]): 63 µM
- IC50 (Glutamate NMDA receptor [4]): 83 µM
- Increase in IC50 [5]: 12.7 and 13.8
- Increase in IC50 [6]: 4.24 and 3.79
- nH [7]: 1.04 and 0.96
